Values of other authors in patent US20170327462A1, “(Z)-3,4,5-TRIMETHOXYSTYRYLBENZENESULFONAMIDES AS POTENTIAL ANTICANCER AGENTS” (COUNCIL OF SCIENTIFIC & INDUSTRIAL RESEARCH, priority 2014, published 2017).

Test system: tubulin
Settings: binding at colchicine binding site; J. Med. Chem. 2008, 51, 6211; cited from earlier work

COc1cc(/C=C\c2ccc(OC)c(N)c2)cc(OC)c1 [(Z)-5-(3,5-dimethoxystyryl)-2-methoxyaniline]
inhibition of tubulin polymerization relative to CA-4: five times stronger than CA-4
